Test results from patent US20250341517A1, “SWITCHING PEPTIDE, IMMUNOASSAY DEVICE COMPRISING SAME, AND IMMUNOASSAY METHOD USING SAME” (OPTOLANE TECHNOLOGIES INC., priority 2021, published 2025).
Ends that are not written are not given here. FAM = carboxyfluorescein (FAM) fluorescent label

Legend:
anti-HBsAG antibody [1] = assay: Fluorescence immunoassay with FAM switching peptide and TQ2 quenching material (FIGS. 9-12); type: binding; conditions: for fluorescence intensity, antigen selectivity: HBsAg
Text: FIG. 9 is a graph illustrating a fluorescence intensity measured after reacting an anti-HBSAG antibody to which an H2 switching peptide of Example 2 and a Tide-Quencher 2 (TQ2) quenching material are bound, with HBsAg, Inf A, Inf B (Florida), Inf B (Tokio), and PBS sample solutions, respectively.
FIG. 10 is a graph illustrating a fluorescence intensity measured after reacting the anti-HBsAG antibody to which the H2 switching peptide of Example 2 and the Tide-Quencher 2 (TQ2) quenching material are bound, with detection sample solutions each containing various concentrations of HBsAg antigens.
FIG. 11 is a graph illustrating a fluorescence intensity measured after binding the anti-HBsAG antibody to which the H2 switching peptide of Example 2 and the Tide-Quencher 2 (TQ2) quenching material are bound, to protein A beads and reacting it with detection sample solutions containing various concentrations of the HBsAg antigens.
FIG. 12 is graphs illustrating a fluorescence intensity measured after reacting the anti-HBsAG antibody to which one of the L1, H1, L2 and H2 switching peptides of Example 2 and the TQ2 quenching material is bound, with HRP, CRP, HBsAg, and hCG sample solutions, respectively.

Anti-hCG antibody(m) = assay: Release of fluorescently labeled switching peptide from immobilized antibody on antigen binding (Table 4); design: species or system mouse
[2] = test system: rabbit anti-HRP antibodies; assay: Papain treatment of immobilized antibody with bound switching peptide (FIG. 7); type: binding; conditions: after papain treatment compared to before
Text: FIG. 7A is a schematic diagram illustrating states before and after treatment of the antibody to which the four types of peptides of Example 1 were bound, respectively, with papain, which is a protease, and FIG. 7B is graphs illustrating a fluorescence intensity measured at a bottom (B) of the microplate and in a solution(S) after the papain treatment. In the case of this experiment, after immobilization of the antibodies (rabbit anti-HRP antibodies) on the microplate, binding between the antibody and the switching peptide was induced by treatment with a fluorescently labeled switching peptide, the unbound switching peptide was removed, and then the Fab region was hydrolyzed from the immobilized antibodies by adding papain, which is a protease.
Referring to FIG. 7A, the fluorescence at the bottom (B) of the microplate is expected to decrease after the papain reaction because the fluorescently labeled switching peptides are bound to the Fab region of antibodies, and the fluorescence in the solution is expected to increase because the Fab region to which the switching peptide is bound is hydrolyzed and dissolved into the solution. This prediction is proven to be true from the graphs of FIG. 7B.

Anti-HRP antibody(r) = assay: Release of fluorescently labeled switching peptide from immobilized antibody on antigen binding (Table 4); design: species or system rabbit; conditions: after treatment with antigen HRP
[3] = test system: anti-HRP antibody from a rabbit; assay: One-step immunoassay with varying HRP concentration (FIG. 8); type: binding; conditions: HRP 0.3 to 100 μM (FIG. 8B)
Text: FIG. 8A is a schematic diagram for explaining an immunoassay method using fluorescently labeled peptide compounds of Example 1, and FIGS. 8B and 8C are graphs illustrating the fluorescence intensity in a solution and at a bottom of the microplate depending on a concentration of the antigen measured by the immunoassay method illustrated in FIG. 8A. In this experiment, an anti-HRP antibody from a rabbit immobilized on a microplate was used as the binding antibody and HRP was used as the antigen.

Anti-CRP antibody(r) = assay: Release of fluorescently labeled switching peptide from immobilized antibody on antigen binding (Table 4); design: species or system rabbit
Anti-HBsAg antibody(g) = assay: as above; design: species or system goat; conditions: after treatment with antigen HBsAg
L2 peptide = assay: FRET test of specific interaction between H1 and L2 peptides on microplate (FIG. 4A); type: binding; conditions: H1 (TAMRA) and L2 (FAM); H1 concentration varied
Text: (§1) FIG. 4A is diagrams illustrating a method for confirming a specific interaction between L1 and H2 peptides and a specific interaction between L2 and H1 peptides and the measurement results thereof, and FIG. 4B is diagrams for explaining a specific interaction between L1 and H2 peptides and a specific interaction between L2 and H1 peptides analyzed using PyMOL software. Here, at the ends of the L1 and L2 peptides, a first fluorescent label, FAM (λex=488 nm, λem=532 nm) was modified, and at the ends of the H1 and H2 peptides, a second fluorescent label, TAMRA (ex=532 nm, hem=570 nm) was modified. Meanwhile, the first peptide (L1 or L2) was immobilized on a parylene-H-coated microplate through a covalent bond between a formyl group of parylene-H and a primary amine group of a lysine residue in the peptide, and a second peptide (H2 or H1) was incubated with the immobilized first peptide (L1 or L2) to allow specific interactions between them.

Inf-B = assay: One-step immunoassay detection of Inf-B with switching-peptide-bound binding antibody (FIG. 19, 20D); conditions: antibody bound to the peptide, treated with Inf-A, CRP, BSA
Text: Therefore, an antibody bound to the L1 peptide or the H2 peptide may be used for selective detection of the Inf-B.
Therefore, binding antibodies bound to the two types of peptides may have similar responses upon detection of Inf-A.
In addition, since it can be confirmed that the baseline is maintained in the experiment with CoV strain 229E, which is a negative control, the immunoassay based on the two types of binding antibodies may be used to detect Inf-B in actual samples.
Therefore, the immunoassay device using the switching peptide according to the present disclosure may sensitively detect Inf-B in a much wider detection range than conventional rapid tests, and the one-step immunoassay method according to the present disclosure may be used for much more sensitive detection of Inf-A and Inf-B in the entire detection range compared to conventional rapid tests.

Inf-A = assay: One-step immunoassay detection of Inf-A with switching-peptide-bound binding antibody (FIG. 18, 20B); design: species or system Influenza A; conditions: anti-Inf-A antibody bound to the peptide, treated with Inf-A, CRP, BSA
anti-HBsAG antibody [4] = assay: Graphene-quenched immunoassay with TAMRA L1 switching peptide (FIG. 13); type: binding; conditions: L1 labeled with TAMRA; graphene quenching material
Text: FIG. 13 is graphs illustrating a fluorescence intensity measured after binding an anti-HBsAg antibody to which an L1 switching peptide labeled with a TAMRA fluorescent label is bound, to a graphene quenching material and reacting it with an HBsAg sample solution.

anti-inf A antibody = assay: Graphene-quenched immunoassay with TAMRA L1 switching peptide (FIG. 14); type: binding; conditions: L1 labeled with TAMRA; graphene quenching material
Text: FIG. 14 is a graph illustrating a fluorescence intensity measured after binding an anti-inf A antibody to which an L1 switching peptide labeled with a TAMRA fluorescent label is bound, to a graphene quenching material and reacting it with an Influenza A sample solution.

H2 peptide = assay: FRET test of specific interaction between L1 and H2 peptides on microplate (FIG. 4A); type: binding; conditions: L1 (FAM) and H2 (TAMRA); L1 concentration varied
Text: as §1

anti-SARS-COV-2 antibody = assay: Graphene-quenched immunoassay with TAMRA L1 switching peptide (FIG. 15); type: binding; conditions: L1 labeled with TAMRA; graphene quenching material
Text: FIG. 15 is a graph illustrating a fluorescence intensity measured after binding an anti-SARS-COV-2 antibody to which an L1 switching peptide labeled with a TAMRA fluorescent label is bound, to a graphene quenching material and reacting it with a SARS-CoV-2 sample solution.

[5] = FAM switching peptides of Example 2, TQ2, HRP, CRP, hCG sample solutions (FIG. 12)

| Substance | fluorescence intensity, antigen selectivity (anti-HBsAG antibody [1]; TQ2 quencher, Inf A, Inf B (Florida), Inf B (Tokio), PBS sample solutions (FIG. 9)) | fluorescence intensity versus HBsAg concentration (anti-HBsAG antibody [1]; TQ2 quencher, antibody bound to protein A beads (FIG. 11)) | In solution (S), Change (%) (Anti-hCG antibody(m)) | increase of fluorescence intensity in the solution [2] | fluorescence intensity at the bottom of the plate decreased by (Anti-HRP antibody(r)) | fluorescence intensity in the solution versus antigen concentration [3] | In solution (S), Change (%) (Anti-CRP antibody(r)) | fluorescence intensity at the bottom of the plate decreased by (Anti-HBsAg antibody(g)) | fluorescence intensity, antigen selectivity (anti-HBsAG antibody [1]; [5]) | FRET intensity (L2 peptide) | fluorescence signal, selectivity (Inf-B) | fluorescence signal, selectivity (Inf-A) | specificity for the antigen compared with other switching peptides (anti-HBsAG antibody [1]; FAM switching peptides of Example 2, TQ2 (FIG. 12)) | fluorescence intensity versus HBsAg concentration (anti-HBsAG antibody [4]) | fluorescence intensity versus Influenza A antigen concentration (anti-inf A antibody) | FRET intensity (H2 peptide) | fluorescence intensity versus SARS-COV-2 antigen concentration (anti-SARS-COV-2 antibody) |
| --- | --- | --- | --- | --- | --- | --- | --- | --- | --- | --- | --- | --- | --- | --- | --- | --- | --- |
| FAM-VYYCAREPTGTGIYFDVWGK ({FAM}-VYYCAREPTGTGIYFDVWGK) [H2 switching peptide of Example 2] | high intensity fluorescence was measured only for the HBsAg antigen | increased as the concentration of HBsAg antigens of the detection sample solution increased |  |  |  |  |  |  |  |  |  |  |  |  |  |  |  |
| VYYCFQGSHVPFTK [L2, VYYCF QGSHV PFTK] |  |  | +456% | 2,452% | 25.5% | increase in the fluorescence intensity in the solution was observed depending on the concentration of the antigen | +883% | 35.2% | high intensity fluorescence was measured only for the HBsAg antigen |  |  |  |  |  |  |  |  |
| SYWIHWVKQRPGQGLEWIGE [H1, SYWIH WVKQR PGQGL EWIGE] |  |  | +206% | 2,184% | 12.3% | increase in the fluorescence intensity in the solution was observed depending on the concentration of the antigen | +152% | 41.1% | high intensity fluorescence was measured only for the HBsAg antigen | FRET intensity was observed to increase with increasing the concentration of the H1 peptide |  |  |  |  |  |  |  |
| VYYCAREPTGTGIYFDVWGK [H2, VYYCA REPTG TGIYF DVWGK] |  |  | +416% | 2,356% | 14.8% | increase in the fluorescence intensity in the solution was observed depending on the concentration of the antigen | +677% | 63.9% | high intensity fluorescence was measured only for the HBsAg antigen |  | significantly higher fluorescence signal was generated when the Inf-B is treated | significantly higher fluorescence signal is generated when the Inf-A is treated | specificity for the antigen was relatively low |  |  |  |  |
| TYLEWYPQKPGQSPKLLIYK [L1, TYLEW YPQKP GQSPK LLIYK] |  |  | +187% | 1,032% | 12.7% | increase in the fluorescence intensity in the solution was observed depending on the concentration of the antigen | +778% | 48.7% | high intensity fluorescence was measured only for the HBsAg antigen |  | significantly higher fluorescence signal was generated when the Inf-B is treated | significantly higher fluorescence signal is generated when the Inf-A is treated |  | increased almost linearly as the concentration of the HBsAg antigen contained in the HBsAg sample solution increased | increased almost linearly as the concentration of the Influenza A antigen contained in the Influenza A sample solution increased | FRET intensity increased with increasing the concentration of the L1 peptide | increased as the concentration of the SARS-COV-2 antigen contained in the SARS-COV-2 sample solution increased |
